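GI50: concentration for 50% inhibition of growth. The concentration for full growth arrest is given as TGI.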
Assays:
Experiment in all cases: inhibition of tumour cell growth, NCI panel, 384-well format
U251 glioblastoma = test system: U251 glioblastoma
SK-MEL-28 melanoma = test system: SK-MEL-28 melanoma
COLO 205 colon = test system: COLO 205 colon
SK-MEL-5 melanoma = test system: SK-MEL-5 melanoma
M14 melanoma = test system: M14 melanoma
SF-539 CNS = test system: SF-539 CNS
SK-MEL-2 melanoma = test system: SK-MEL-2 melanoma
CAKI-1 renal = test system: CAKI-1 renal
NCI-H226 lung = test system: NCI-H226 lung
NCI-H522 lung = test system: NCI-H522 lung
HL-60(TB) leukemia = test system: HL-60(TB) leukemia
786-0 renal = test system: 786-0 renal
IGROV1 ovarian = test system: IGROV1 ovarian
K-562 leukemia = test system: K-562 leukemia
OVCAR-3 ovarian = test system: OVCAR-3 ovarian
MOLT-4 leukemia = test system: MOLT-4 leukemia
RPMI-8226 leukemia = test system: RPMI-8226 leukemia
SR leukemia = test system: SR leukemia
PC-3 prostate = test system: PC-3 prostate
DU-145 prostate = test system: DU-145 prostate
UACC-62 melanoma = test system: UACC-62 melanoma
LOX IMVI melanoma = test system: LOX IMVI melanoma
HOP-92 NSCLC = test system: HOP-92 NSCLC
MCF7 breast = test system: MCF7 breast
NCI-H322M lung = test system: NCI-H322M lung
HS 578T breast = test system: HS 578T breast
MDA-MB-468 breast = test system: MDA-MB-468 breast
HOP-62 NSCLC = test system: HOP-62 NSCLC
EKVX NSCLC = test system: EKVX NSCLC
SW-620 colon = test system: SW-620 colon
HT29 colon = test system: HT29 colon
SK-OV-3 ovarian = test system: SK-OV-3 ovarian
HCT-116 colon = test system: HCT-116 colon
MDA-MB-435 melanoma = test system: MDA-MB-435 melanoma
A549 NSCLC = test system: A549 NSCLC
RXF 393 renal = test system: RXF 393 renal
UO-31 renal = test system: UO-31 renal
HCT-15 colon = test system: HCT-15 colon
BT-549 breast = test system: BT-549 breast
SF-268 CNS = test system: SF-268 CNS
HCC-2998 colon = test system: HCC-2998 colon
CCRF-CEM leukemia = test system: CCRF-CEM leukemia
SNB-75 CNS = test system: SNB-75 CNS
SF-295 CNS = test system: SF-295 CNS
NCI-H460 NSCLC = test system: NCI-H460 NSCLC
NCI-H23 lung = test system: NCI-H23 lung
OVCAR-4 ovarian = test system: OVCAR-4 ovarian
TK-10 renal = test system: TK-10 renal
ACHN renal = test system: ACHN renal
SNB-19 CNS = test system: SNB-19 CNS
MDA-MB-231 breast = test system: MDA-MB-231 breast
UACC-257 melanoma = test system: UACC-257 melanoma
A498 renal = test system: A498 renal
KM12 colon = test system: KM12 colon
OVCAR-5 ovarian = test system: OVCAR-5 ovarian
SN12C renal = test system: SN12C renal
MALME-3M melanoma = test system: MALME-3M melanoma

Which results are given for `Cc1[nH]c2ccc(F)cc2c1-c1nc2c3cccnc3c3ncccc3c2[nH]1`?
GI50 (U251 glioblastoma): 63.7 nM; TGI (U251 glioblastoma): 710 nM; GI50 (SK-MEL-28 melanoma): 272 nM; TGI (SK-MEL-28 melanoma): > 100000 nM; GI50 (COLO 205 colon): 35.3 nM; TGI (COLO 205 colon): 141 nM; GI50 (SK-MEL-5 melanoma): 25.2 nM; TGI (SK-MEL-5 melanoma): 119 nM; GI50 (M14 melanoma): 192 nM; TGI (M14 melanoma): 472 nM; GI50 (SF-539 CNS): 125 nM; TGI (SF-539 CNS): 404 nM; GI50 (SK-MEL-2 melanoma): 353 nM; TGI (SK-MEL-2 melanoma): 934 nM; GI50 (CAKI-1 renal): 218 nM; TGI (CAKI-1 renal): 572 nM; GI50 (NCI-H226 lung): 147 nM; TGI (NCI-H226 lung): 683 nM; GI50 (NCI-H522 lung): 244 nM; TGI (NCI-H522 lung): 852 nM; GI50 (HL-60(TB) leukemia): 45.3 nM; TGI (HL-60(TB) leukemia): 176 nM; GI50 ([…]-0 renal): 176 nM; TGI (786-0 renal): 586 nM; GI50 (IGROV1 ovarian): 182 nM; TGI (IGROV1 ovarian): 32900 nM; GI50 (K-562 leukemia): 217 nM; TGI (K-562 leukemia): > 100000 nM; GI50 (OVCAR-3 ovarian): 27.8 nM; TGI (OVCAR-3 ovarian): 22200 nM; GI50 (MOLT-4 leukemia): 37.4 nM; TGI (MOLT-4 leukemia): 151 nM; GI50 (RPMI-8226 leukemia): 3110 nM; TGI (RPMI-8226 leukemia): 15000 nM; GI50 (SR leukemia): 19.2 nM; TGI (SR leukemia): 33.9 nM; GI50 (PC-3 prostate): 69.9 nM; TGI (PC-3 prostate): > 100000 nM; GI50 (DU-145 prostate): 60.7 nM; TGI (DU-145 prostate): 413 nM; GI50 (UACC-62 melanoma): 204 nM; TGI (UACC-62 melanoma): 587 nM; GI50 (LOX IMVI melanoma): 62.5 nM; TGI (LOX IMVI melanoma): 231 nM; GI50 (HOP-92 NSCLC): 194 nM; TGI (HOP-92 NSCLC): 742 nM; GI50 (MCF7 breast): 298 nM; TGI (MCF7 breast): 40300 nM; GI50 (NCI-H322M lung): 125 nM; TGI (NCI-H322M lung): 28500 nM; GI50 (HS 578T breast): 318 nM; TGI (HS 578T breast): 12100 nM; GI50 (MDA-MB-468 breast): 74.5 nM; TGI (MDA-MB-468 breast): 214 nM; GI50 (HOP-62 NSCLC): 129 nM; TGI (HOP-62 NSCLC): 345 nM; GI50 (EKVX NSCLC): 122 nM; TGI (EKVX NSCLC): 14200 nM; GI50 (SW-620 colon): 336 nM; TGI (SW-620 colon): > 100000 nM; GI50 (HT29 colon): 338 nM; TGI (HT29 colon): > 100000 nM; GI50 (SK-OV-3 ovarian): 44.9 nM; TGI (SK-OV-3 ovarian): 9450 nM; GI50 (HCT-116 colon): 52.1 nM; TGI (HCT-116 colon): 654 nM; GI50 (MDA-MB-435 melanoma): 306 nM; TGI (MDA-MB-435 melanoma): > 100000 nM; GI50 (A549 NSCLC): 421 nM; TGI (A549 NSCLC): > 100000 nM; GI50 (RXF 393 renal): 31.4 nM; TGI (RXF 393 renal): 192 nM; GI50 (UO-31 renal): 319 nM; TGI (UO-31 renal): 7710 nM; GI50 (HCT-15 colon): 245 nM; TGI (HCT-15 colon): 29900 nM; GI50 (BT-549 breast): 41.8 nM; TGI (BT-549 breast): 254 nM; GI50 (SF-268 CNS): 25 nM; TGI (SF-268 CNS): 83.1 nM; GI50 (HCC-2998 colon): 24.2 nM; TGI (HCC-2998 colon): > 100000 nM; GI50 (CCRF-CEM leukemia): 37.6 nM; TGI (CCRF-CEM leukemia): 136 nM; GI50 (SNB-75 CNS): 230 nM; TGI (SNB-75 CNS): 759 nM; GI50 (SF-295 CNS): 303 nM; TGI (SF-295 CNS): 12000 nM; GI50 (NCI-H460 NSCLC): 367 nM; TGI (NCI-H460 NSCLC): 4260 nM; GI50 (NCI-H23 lung): 233 nM; TGI (NCI-H23 lung): 704 nM; GI50 (OVCAR-4 ovarian): 96 nM; TGI (OVCAR-4 ovarian): > 100000 nM; GI50 (TK-10 renal): 450 nM; TGI (TK-10 renal): 18800 nM; GI50 (ACHN renal): 241 nM; TGI (ACHN renal): 686 nM; GI50 (SNB-19 CNS): 241 nM; TGI (SNB-19 CNS): 883 nM; GI50 (MDA-MB-231 breast): 228 nM; TGI (MDA-MB-231 breast): 2930 nM; GI50 (UACC-257 melanoma): 227 nM; TGI (UACC-257 melanoma): 603 nM; GI50 (A498 renal): 205 nM; TGI (A498 renal): > 100000 nM; GI50 (KM12 colon): 266 nM; TGI (KM12 colon): > 100000 nM; GI50 (OVCAR-5 ovarian): 298 nM; TGI (OVCAR-5 ovarian): 17600 nM; GI50 (SN12C renal): 161 nM; TGI (SN12C renal): 397 nM; GI50 (MALME-3M melanoma): 195 nM; TGI (MALME-3M melanoma): 743 nM

Reference: PubChem BioAssay (NCI)
